Test results taken from ChEMBL document CHEMBL1134339, “New 1-aryl-3-(4-arylpiperazin-1-yl)propane derivatives, with dual action at 5-HT1A serotonin receptors and serotonin transporter, as a new class of antidepressants” (J Med Chem, 2001).

Columns and labels:
[1] = test system: Mus musculus; assay: Time-dependent effect on 8-OH-DPAT-induced hypothermia (change in body temperature) after 30 min, in mice at 0.5 mg/kg dose; type: functional
[2] = test system: Mus musculus; assay: Time-dependent effect on 8-OH-DPAT-induced hypothermia (change in body temperature) after 15 min, in mice at 0.1 mg/kg dose; type: functional
[3] = test system: Rattus norvegicus; assay: Effect on helpless behavior in rats and the number of escape failures was determined in shuttle-box session-1 (SB-1) at 1 mg/kg dose; type: functional
[4] = biological target: T1, Adrenergic receptor alpha-1 (Rattus norvegicus, UniProt P15823+P23944+P43140); assay: Affinity towards alpha-1 adrenergic receptor from rat cortex using [3H]prazosin radioligand (For prazosin Ki(nM)= […]+/-[…])
T1 sequence (P15823 whole entry): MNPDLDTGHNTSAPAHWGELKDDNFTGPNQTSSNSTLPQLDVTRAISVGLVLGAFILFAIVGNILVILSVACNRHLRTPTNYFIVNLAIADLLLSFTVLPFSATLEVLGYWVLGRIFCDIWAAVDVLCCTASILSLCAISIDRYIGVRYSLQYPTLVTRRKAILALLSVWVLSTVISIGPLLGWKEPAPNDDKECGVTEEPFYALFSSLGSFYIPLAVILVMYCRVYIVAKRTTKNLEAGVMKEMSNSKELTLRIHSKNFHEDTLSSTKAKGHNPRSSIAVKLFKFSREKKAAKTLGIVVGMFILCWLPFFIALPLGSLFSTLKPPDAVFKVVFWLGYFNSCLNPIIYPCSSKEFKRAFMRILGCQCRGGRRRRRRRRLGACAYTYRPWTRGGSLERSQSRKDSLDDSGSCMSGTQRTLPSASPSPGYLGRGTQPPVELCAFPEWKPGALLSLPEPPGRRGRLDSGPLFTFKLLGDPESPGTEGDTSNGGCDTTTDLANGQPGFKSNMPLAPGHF
T1 sequence (P23944 whole entry): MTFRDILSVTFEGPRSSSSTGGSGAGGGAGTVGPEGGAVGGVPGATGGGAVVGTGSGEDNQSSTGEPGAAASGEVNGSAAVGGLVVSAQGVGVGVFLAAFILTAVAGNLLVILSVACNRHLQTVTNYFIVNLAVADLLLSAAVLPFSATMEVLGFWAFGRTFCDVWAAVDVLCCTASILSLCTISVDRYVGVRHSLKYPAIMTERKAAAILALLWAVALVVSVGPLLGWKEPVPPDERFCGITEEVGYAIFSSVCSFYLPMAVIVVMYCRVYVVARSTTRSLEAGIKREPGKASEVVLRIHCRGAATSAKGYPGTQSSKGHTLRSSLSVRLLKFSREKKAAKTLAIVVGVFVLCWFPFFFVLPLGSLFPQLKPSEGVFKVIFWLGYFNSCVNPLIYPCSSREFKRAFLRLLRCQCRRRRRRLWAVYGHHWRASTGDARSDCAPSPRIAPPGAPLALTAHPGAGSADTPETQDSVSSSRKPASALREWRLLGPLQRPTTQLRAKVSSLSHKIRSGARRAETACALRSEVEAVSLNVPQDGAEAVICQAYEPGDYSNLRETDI
T1 sequence (P43140 whole entry): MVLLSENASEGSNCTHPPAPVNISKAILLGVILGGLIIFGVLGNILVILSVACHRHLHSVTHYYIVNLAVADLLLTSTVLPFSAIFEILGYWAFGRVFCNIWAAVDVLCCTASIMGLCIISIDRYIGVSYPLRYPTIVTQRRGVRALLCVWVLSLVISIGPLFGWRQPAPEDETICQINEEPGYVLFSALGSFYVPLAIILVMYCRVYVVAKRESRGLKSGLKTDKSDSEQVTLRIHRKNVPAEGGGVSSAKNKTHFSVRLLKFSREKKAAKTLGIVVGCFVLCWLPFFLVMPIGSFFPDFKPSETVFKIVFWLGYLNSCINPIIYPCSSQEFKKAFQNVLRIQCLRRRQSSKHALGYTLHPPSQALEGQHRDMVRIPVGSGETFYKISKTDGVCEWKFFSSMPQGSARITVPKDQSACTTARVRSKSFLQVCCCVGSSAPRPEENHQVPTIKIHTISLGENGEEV

[5] = biological target: T2, 5-hydroxytryptamine receptor 1A (Rattus norvegicus, UniProt P19327); assay: Binding affinity to 5-hydroxytryptamine 1A receptor (5-HT 1A receptor, serotonin receptor) from rat cortex using [3H]8-OH-DPAT as radioligand
T2 sequence (P19327 whole entry): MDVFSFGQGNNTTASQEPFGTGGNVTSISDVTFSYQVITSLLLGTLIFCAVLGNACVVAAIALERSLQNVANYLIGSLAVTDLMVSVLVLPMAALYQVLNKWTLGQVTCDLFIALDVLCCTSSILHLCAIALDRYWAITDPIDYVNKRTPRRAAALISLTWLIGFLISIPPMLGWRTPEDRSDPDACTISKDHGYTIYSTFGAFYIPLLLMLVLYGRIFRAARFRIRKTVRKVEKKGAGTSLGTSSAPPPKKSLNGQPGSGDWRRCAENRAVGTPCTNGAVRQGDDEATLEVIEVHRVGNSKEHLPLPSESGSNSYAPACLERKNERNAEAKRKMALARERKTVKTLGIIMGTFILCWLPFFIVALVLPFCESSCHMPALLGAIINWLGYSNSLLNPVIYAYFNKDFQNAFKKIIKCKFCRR

[6] = biological target: T3, 5-hydroxytryptamine receptor 1A (Homo sapiens) (UniProt P08908); details: HeLa
T3 sequence (whole entry): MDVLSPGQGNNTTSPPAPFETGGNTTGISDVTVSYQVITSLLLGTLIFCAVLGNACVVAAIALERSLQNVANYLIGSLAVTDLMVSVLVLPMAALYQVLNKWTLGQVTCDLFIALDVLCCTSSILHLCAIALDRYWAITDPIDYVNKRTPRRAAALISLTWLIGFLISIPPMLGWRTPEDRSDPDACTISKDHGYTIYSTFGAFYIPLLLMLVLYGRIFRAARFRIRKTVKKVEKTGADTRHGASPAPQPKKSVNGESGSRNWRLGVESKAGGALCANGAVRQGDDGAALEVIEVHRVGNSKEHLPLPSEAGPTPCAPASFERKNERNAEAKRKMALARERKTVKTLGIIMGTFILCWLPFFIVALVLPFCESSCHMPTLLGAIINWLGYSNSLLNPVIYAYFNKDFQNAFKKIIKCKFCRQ
Description: Effect on Forskolin-Stimulated cAMP formation, in HeLa cells transfected with the 5-HT 1A receptor at 1 uM concentration

[7] = biological target: T3, 5-hydroxytryptamine receptor 1A (Homo sapiens); details: HeLa; remark: listed apart in the source
Description: Effect (1 uM) on Forskolin-Stimulated cAMP formation, in HeLa cells transfected with the 5-HT 1A receptor

[8] = test system: Mus musculus; assay: Time-dependent effect on 8-OH-DPAT-induced hypothermia (change in body temperature) after 15 min, in mice at 0.5 mg/kg dose; type: functional
[9] = test system: Rattus norvegicus; assay: Effect on helpless behavior in rats and the number of escape failures was determined in shuttle-box session-2 (SB-2) at 1 mg/kg dose; type: functional
[10] = test system: Mus musculus; assay: Time-dependent effect on 8-OH-DPAT-induced hypothermia (change in body temperature) after 30 min, in mice at 0.1 mg/kg dose; type: functional
[11] = test system: Mus musculus; assay: Effect on immobility time in the forced swimming test (FST) in mice at 10 mg/kg dose; type: functional
[12] = test system: Mus musculus; assay: Time-dependent effect on 8-OH-DPAT-induced hypothermia (change in body temperature) after 60 min, in mice at 5 mg/kg dose; type: functional

## COc1ccccc1N1CCN(CCC(=O)c2csc3ccccc23)CC1
[1]
  Temperature change: <-0.86 °C
[2]
  Temperature change: -2.14 °C
[3]
  No. of escape failures: <9.8
[4]
  Ki: 6 nM
[5]
  Ki: 44 nM
[6]
  cAMP: 27 pmol/well
[7]
  cAMP: < 20.8 pmol/well
[8]
  Temperature change: <-1.58 °C
[9]
  No. of escape failures: <4
[10]
  Temperature change: -1.66 °C
[11]
  Immobility time: <86.6 s
[12]
  Temperature change: -1.27 °C

## COc1ccccc1N1CCN(CCC(Oc2cccc3ccccc23)c2ccsc2)CC1 (stereo unspecified)
[1]
  Temperature change: -1.35 °C
[2]
  Temperature change: -2.12 °C
[3]
  No. of escape failures: 5.8
[4]
  Ki: 135 nM
[5]; read-out: Ki
  Ki: 180 nM
[6]
  cAMP: 28.5 pmol/well
[7]
  cAMP: < 15.4 pmol/well
[8]
  Temperature change: -1.72 °C
[9]
  No. of escape failures: 1.3
[10]
  Temperature change: -1.54 °C
[11]
  Immobility time: <91.1 s
[12]
  Temperature change: -1.22 °C

## COc1ccccc1N1CCN(CCC(O)c2csc3ccccc23)CC1 (stereo unspecified)
[1]
  Temperature change: -1.38 °C
[2]
  Temperature change: -1.6 °C
[3]
  No. of escape failures: 8
[4]
  Ki: 35 nM
[5]; read-out: Ki
  Ki: 20 nM
[6]
  cAMP: 19.1 pmol/well
[7]
  cAMP: 18.1 pmol/well
[8]
  Temperature change: -1.23 °C
[9]
  No. of escape failures: 2.3
[10]
  Temperature change: -1.3 °C
[11]
  Immobility time: 143.5 s
[12]
  Temperature change: -1.16 °C
